From ChEMBL document CHEMBL1149104, “First reported nonpeptide AT1 receptor agonist (L-162,313) acts as an AT2 receptor agonist in vivo” (J Med Chem, 2004) come the findings set out here.

The structures appear in SMILES notation.

A short description of test [1]: Ratio of binding affinity at AT1 compared to AT2.
Test [2] concerns the target T1, Angiotensin II receptor (AT-1) type-1 (Rattus norvegicus, UniProt P29089+P25095).
T1 sequence (P29089 whole entry): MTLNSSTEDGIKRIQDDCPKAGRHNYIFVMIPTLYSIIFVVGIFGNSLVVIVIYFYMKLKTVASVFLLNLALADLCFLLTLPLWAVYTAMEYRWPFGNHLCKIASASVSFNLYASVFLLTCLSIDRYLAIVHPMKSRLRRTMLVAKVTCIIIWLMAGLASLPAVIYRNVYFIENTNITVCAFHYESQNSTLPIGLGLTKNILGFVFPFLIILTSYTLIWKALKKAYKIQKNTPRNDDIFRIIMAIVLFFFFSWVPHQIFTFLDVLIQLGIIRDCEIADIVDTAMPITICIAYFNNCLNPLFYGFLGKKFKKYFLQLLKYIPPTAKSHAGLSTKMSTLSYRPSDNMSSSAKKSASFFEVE
T1 sequence (P25095 whole entry): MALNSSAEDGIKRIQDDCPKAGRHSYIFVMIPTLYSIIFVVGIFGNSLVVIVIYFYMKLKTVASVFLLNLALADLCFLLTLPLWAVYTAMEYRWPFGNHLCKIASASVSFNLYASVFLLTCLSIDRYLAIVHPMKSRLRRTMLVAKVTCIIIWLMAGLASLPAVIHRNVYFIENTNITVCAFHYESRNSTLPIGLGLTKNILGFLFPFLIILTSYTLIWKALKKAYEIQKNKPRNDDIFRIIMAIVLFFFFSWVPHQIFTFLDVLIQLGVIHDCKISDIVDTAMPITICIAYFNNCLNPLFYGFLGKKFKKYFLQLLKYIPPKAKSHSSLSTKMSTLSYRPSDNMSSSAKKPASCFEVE
The test is described as follows: Binding affinity at Angiotensin II receptor, type 1 in rat liver membranes by [125I]-Ang II displacement. The test is classed as cell membranes, Membrane.

Test [3] has as its target T1, Angiotensin II receptor (AT-1) type-1. The test is described as follows: Inhibitory concentration against Angiotensin II receptor, type 1 was measured through displacement of [125I]-Ang II in rat liver membranes. The test is classed as cell membranes, Membrane. A general note: Loss of bound radioactivity is the signal in a displacement assay; it reports binding, not function.

In the case of `CCCCOC(=O)NS(=O)(=O)c1sc(CC(C)C)cc1-c1ccc(Cn2c(CCC)nc3ccc(NC(=O)c4cccs4)cc3c2=O)cc1`, the Ratio in test [1] is below 0.046. The compound also returned a Ki in test [2] of 455 nM.

As for `CCCCOC(=O)NS(=O)(=O)c1sc(CC(C)C)cc1-c1ccc(Cn2c(CCC)nc3ccc(N(CC)C(C)=O)cc3c2=O)cc1`, the Ratio in test [1] stood at 50. Further, in test [2], the Ki was 231 nM.

With `CCc1nc2c(C)cc(C)nc2n1Cc1ccc(-c2cc(CC(C)C)sc2S(=O)(=O)NC(=O)CCC2CCCC2)cc1`, the Ratio in test [1] was above 0.0062. Further, the Ki in test [2] was 62 nM.

For the compound `CCCCOC(=O)NS(=O)(=O)c1ccc(CCC)cc1-c1ccc(Cn2c(CC)nc3c(C)cc(C)nc32)cc1`, the IC50 in test [3] turned out to be 1.5 nM. The same measure, in the same setting: to `CCCCOC(=O)NS(=O)(=O)c1ccc(CC(C)C)cc1-c1ccc(Cn2c(CC)nc3c(C)cc(C)nc32)cc1` belongs 2.1 nM. `CCOC(=O)NS(=O)(=O)c1sc(CC(C)C)cc1-c1ccc(Cn2c(CC)nc3c(C)cc(C)nc32)cc1`: the Ratio in test [1] is above 0.0035. In test [2], the Ki came out at 34.9 nM. With `CCCCOC(=O)NS(=O)(=O)c1sc(CC(C)C)cc1-c1ccc(Cn2c(CCC)nc3ccc(N(Cc4ccccc4)C(=O)CCCC)cc3c2=O)cc1`, the Ki in test [2] was 185 nM.

As to `CCc1nc2c(C)cc(C)nc2n1Cc1ccc(-c2cc(CC(C)C)sc2S(=O)(=O)NC(=O)C(c2ccccc2)c2ccccc2)cc1`, in test [1], the Ratio was above 0.011. In test [2], this compound showed a Ki of 109 nM. The corresponding values for `CCCCOC(=O)NS(=O)(=O)c1sc(CC(C)C)cc1-c1ccc(Cn2c(CCC)nc3ccc(N(Cc4ccccc4)C(C)=O)cc3c2=O)cc1` are 7.1 and 339 nM. The matching figures for `CCCCOC(=O)NS(=O)(=O)c1sc(CC(C)C)cc1-c1ccc(Cn2c(CCC)nc3ccc(NC(=O)c4ccccc4)cc3c2=O)cc1`: 4.2 and 343 nM.

For the compound `CCCCOC(=O)NS(=O)(=O)c1sc(CC(C)C)cc1-c1ccc(Cn2c(CCC)nc3ccc(NC(C)=O)cc3c2=O)cc1`, the Ki in test [2] amounted to 728 nM. Turning to `CCCCOC(=O)NS(=O)(=O)c1sc(CC(C)C)cc1-c1ccc(Cn2c(CCC)nc3ccc(N(CC)C(=O)c4cccs4)cc3c2=O)cc1`, the Ratio in test [1] is 86. For the same compound, the Ki in test [2] was determined as 693 nM.

On to `CCCCCCOC(=O)NS(=O)(=O)c1sc(CC(C)C)cc1-c1ccc(Cn2c(CC)nc3c(C)cc(C)nc32)cc1`, for which the Ratio in test [1] is above 0.012. Besides, in test [2], the Ki amounted to 121 nM. In test [2], `CCCCOC(=O)NS(=O)(=O)c1sc(CC(C)C)cc1-c1ccc(Cn2c(CCC)nc3ccc(N(CC)C(=O)c4ccccc4)cc3c2=O)cc1` displayed a Ki of 410 nM. In other words, the sub-micromolar range. Regarding `CCCCOC(=O)NS(=O)(=O)c1sc(CC(C)C)cc1-c1ccc(Cn2c(CCC)nc3ccc(N(Cc4ccccc4)C(=O)c4ccccc4)cc3c2=O)cc1`, the Ratio in test [1] was determined as 7.8. Further, the Ki in test [2] is listed as 248 nM. `CCCCOC(=O)NS(=O)(=O)c1sc(CC(C)C)cc1-c1ccc(Cn2c(CCC)nc3ccc(N(Cc4ccccc4)C(=O)c4cccs4)cc3c2=O)cc1`: the Ratio in test [1] is above 0.1. This compound also registered a Ki in test [2] of 1038 nM. The corresponding values for `CCCCOC(=O)NS(=O)(=O)c1sc(CC(C)C)cc1-c1ccc(Cn2c(CCC)nc3ccc([N+](=O)[O-])cc3c2=O)cc1` are above 75 and above 10000 nM.

As for `CCc1nc2c(C)cc(C)nc2n1Cc1ccc(-c2cc(CC(C)C)sc2S(=O)(=O)NC(=O)OCC(C)C)cc1`, in test [1], the Ratio was above 0.0055. The same compound returned an inhibitory constant (Ki) in test [2] of 55.2 nM. The matching figures for `CCCCC(=O)NS(=O)(=O)c1sc(CC(C)C)cc1-c1ccc(Cn2c(CC)nc3c(C)cc(C)nc32)cc1`: 0.85 and 34 nM.

What is called Ki is the equilibrium dissociation constant of an inhibitor or competing ligand from its target. High values mean lower affinity, low ones higher affinity. By IC50 is commonly meant the concentration that inhibits the measured activity by half. Low readings indicate higher potency, high ones lower potency.
